Measurements from US20090311217A1, “3-SUBSTITUTED-1H-INDOLE COMPOUNDS, THEIR USE AS MTOR KINASE AND PI3 KINASE INHIBITORS, AND THEIR SYNTHESES” (priority 2008, published 2009).

Legend:
PI3K-alpha = PI3K-alpha (Homo sapiens, UniProt P42336); assay: PI3K-alpha fluorescence polarization assay; type: biochemical; settings: read-out: PI3Kα Avg. IC50
human TOR = molecular target: T1, human TOR (Homo sapiens, UniProt P42345); assay: mTOR enzyme assay (DELFIA, His6-S6K substrate); type: biochemical; settings: read-out: mTOR Kinase Avg. IC50
T1 construct: FLAG

PI3K-alpha, sequence (P42336 whole entry, species assumed): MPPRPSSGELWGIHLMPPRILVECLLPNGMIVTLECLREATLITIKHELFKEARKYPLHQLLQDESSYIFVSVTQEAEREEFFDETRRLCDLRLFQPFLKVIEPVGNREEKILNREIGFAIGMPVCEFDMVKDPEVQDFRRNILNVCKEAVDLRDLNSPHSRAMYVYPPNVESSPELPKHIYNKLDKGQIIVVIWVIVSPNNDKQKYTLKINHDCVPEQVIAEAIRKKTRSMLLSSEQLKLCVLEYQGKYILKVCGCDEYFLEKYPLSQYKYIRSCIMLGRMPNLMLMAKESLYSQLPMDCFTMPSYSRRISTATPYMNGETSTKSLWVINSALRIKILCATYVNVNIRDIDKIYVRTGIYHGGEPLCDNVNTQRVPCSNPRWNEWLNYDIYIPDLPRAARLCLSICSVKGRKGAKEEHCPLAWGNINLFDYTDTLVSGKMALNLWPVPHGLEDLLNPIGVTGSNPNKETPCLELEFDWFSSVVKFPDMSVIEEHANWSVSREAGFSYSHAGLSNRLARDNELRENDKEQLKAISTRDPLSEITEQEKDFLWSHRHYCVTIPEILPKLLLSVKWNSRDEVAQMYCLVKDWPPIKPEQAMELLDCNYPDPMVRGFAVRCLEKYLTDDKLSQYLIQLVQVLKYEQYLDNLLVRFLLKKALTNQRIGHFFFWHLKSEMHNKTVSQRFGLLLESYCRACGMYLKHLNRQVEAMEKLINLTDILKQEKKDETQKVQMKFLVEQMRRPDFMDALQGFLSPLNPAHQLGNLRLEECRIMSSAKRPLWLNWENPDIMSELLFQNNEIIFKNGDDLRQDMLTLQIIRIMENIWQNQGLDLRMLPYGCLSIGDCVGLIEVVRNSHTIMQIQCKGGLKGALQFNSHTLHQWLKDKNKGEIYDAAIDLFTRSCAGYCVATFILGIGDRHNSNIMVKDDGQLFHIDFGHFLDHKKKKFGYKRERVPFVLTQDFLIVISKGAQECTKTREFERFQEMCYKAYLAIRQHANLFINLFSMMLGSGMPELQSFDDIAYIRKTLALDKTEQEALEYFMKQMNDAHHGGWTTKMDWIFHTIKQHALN
PI3K-alpha, sequence (P27986 whole entry partner, species assumed): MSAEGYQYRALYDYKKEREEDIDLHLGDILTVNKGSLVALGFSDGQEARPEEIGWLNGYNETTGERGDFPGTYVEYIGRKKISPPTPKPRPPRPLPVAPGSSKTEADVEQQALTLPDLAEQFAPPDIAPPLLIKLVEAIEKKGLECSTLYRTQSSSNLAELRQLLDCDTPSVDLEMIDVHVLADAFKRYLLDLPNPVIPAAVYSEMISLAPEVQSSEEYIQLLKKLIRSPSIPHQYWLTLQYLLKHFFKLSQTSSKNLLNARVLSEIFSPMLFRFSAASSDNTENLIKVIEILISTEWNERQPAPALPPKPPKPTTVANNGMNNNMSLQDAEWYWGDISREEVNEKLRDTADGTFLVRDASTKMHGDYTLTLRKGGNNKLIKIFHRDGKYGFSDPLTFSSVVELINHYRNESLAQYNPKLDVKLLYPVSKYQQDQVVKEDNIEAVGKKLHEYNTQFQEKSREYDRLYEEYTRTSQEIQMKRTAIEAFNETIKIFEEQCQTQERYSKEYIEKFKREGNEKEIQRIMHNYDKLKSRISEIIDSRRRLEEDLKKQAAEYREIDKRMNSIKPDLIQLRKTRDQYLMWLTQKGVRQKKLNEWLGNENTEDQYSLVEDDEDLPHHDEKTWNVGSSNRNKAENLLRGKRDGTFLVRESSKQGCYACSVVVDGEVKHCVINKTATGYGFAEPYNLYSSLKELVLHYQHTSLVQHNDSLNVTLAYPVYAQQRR

| SMILES | IC50 (PI3K-alpha) | IC50 (human TOR) |
| --- | --- | --- |
| NC(=O)Cn1c(-c2ccccc2)c(C=C2Oc3cc(O)cc(O)c3C2=O)c2ccccc21 [Example 161, 2-{3-[(4,6-dihydroxy-3-oxo-1-benzofuran-2(3H)-ylidene)methyl]-2-phenyl-1H-indol-1-yl}acetamide] | 1.76 µM | 0.6 µM |
| Cc1[nH]c2ccc([N+](=O)[O-])cc2c1C=C1Oc2cc(O)cc(O)c2C1=O [Example 162, 4,6-dihydroxy-2-[(2-methyl-5-nitro-1H-indol-3-yl)methylene]-1-benzofuran-3(2H)-one] | 2.45 µM | > 20 µM |
| N#Cc1ccc2c(C=C3Oc4cc(O)cc(O)c4C3=O)c[nH]c2c1 [Example 167, 3-[(4,6-dihydroxy-3-oxo-1-benzofuran-2(3H)-ylidene)methyl]-1H-indole-6-carbonitrile] | 6.76 µM | 5.3 µM |
| O=C1C(=Cc2c[nH]c3cc4c(cc23)OCO4)Oc2cc(O)cc(O)c21 [Example 168, 2-(5H-[1,3]dioxolo[4,5-f]indol-7-ylmethylene)-4,6-dihydroxy-1-benzofuran-3(2H)-one] | 6.54 µM | > 20 µM |
| CS(=O)(=O)c1ccc2c(C=C3Oc4cc(O)cc(O)c4C3=O)c[nH]c2c1 [Example 169, 4,6-dihydroxy-2-{[6-(methylsulfonyl)-1H-indol-3-yl]methylene}-1-benzofuran-3(2H)-one] | 3.59 µM | 9.1 µM |
| Cc1ccc2[nH]cc(C=C3Oc4cc(O)cc(O)c4C3=O)c2c1 [Example 170, 4,6-dihydroxy-2-[(5-methyl-1H-indol-3-yl)methylene]-1-benzofuran-3(2H)-one] | 5.77 µM | > 20 µM |
| O=C1C(=Cc2c[nH]c3cc(Cl)ccc23)Oc2cc(O)cc(O)c21 [Example 172, 2-[(6-chloro-1H-indol-3-yl)methylene]-4,6-dihydroxy-1-benzofuran-3(2H)-one] | 0.936 µM | 19 µM |
| O=C1C(=Cc2c[nH]c3cc(F)ccc23)Oc2cc(O)cc(O)c21 [Example 176, 2-[(6-fluoro-1H-indol-3-yl)methylene]-4,6-dihydroxy-1-benzofuran-3(2H)-one] | 1.55 µM | 8.7 µM |
| O=C1C(=Cc2c[nH]c3ccc([N+](=O)[O-])cc23)Oc2cc(O)cc(O)c21 [Example 178, 4,6-dihydroxy-2-[(5-nitro-1H-indol-3-yl)methylene]-1-benzofuran-3(2H)-one] | 1.47 µM | 12.5 µM |
| O=C1C(=Cc2c[nH]c3cc([N+](=O)[O-])ccc23)Oc2cc(O)cc(O)c21 [Example 179, 4,6-dihydroxy-2-[(6-nitro-1H-indol-3-yl)methylene]-1-benzofuran-3(2H)-one] | 2.47 µM | 16 µM |
| O=C1C(=Cc2c[nH]c3c([N+](=O)[O-])cccc23)Oc2cc(O)cc(O)c21 [Example 180, 4,6-dihydroxy-2-[(7-nitro-1H-indol-3-yl)methylene]-1-benzofuran-3(2H)-one] | 3.12 µM | > 20 µM |
| O=C(Nc1ccc2[nH]cc(C=C3Oc4cc(O)cc(O)c4C3=O)c2c1)c1ccco1 [Example 183, N-{3-[(4,6-dihydroxy-3-oxo-1-benzofuran-2(3H)-ylidene)methyl]-1H-indol-5-yl}-2-furamide] | 1.2 µM | 6.1 µM |
| COc1ccc2c(C=C3Oc4cc(O)cc(O)c4C3=O)c[nH]c2c1 [Example 186, 4,6-dihydroxy-2-[(6-methoxy-1H-indol-3-yl)methylene]-1-benzofuran-3(2H)-one] | 5.76 µM | 16 µM |
| CCc1cccc2c(C=C3Oc4cc(O)cc(O)c4C3=O)c[nH]c12 [Example 187, 2-[(7-ethyl-1H-indol-3-yl)methylene]-4,6-dihydroxy-1-benzofuran-3(2H)-one] | 5 µM | > 20 µM |
| Cc1noc(C)c1-c1c(C=C2Oc3cc(O)cc(O)c3C2=O)c2ccccc2n1C [Example 191, 2-{[2-(3,5-dimethylisoxazol-4-yl)-1-methyl-1H-indol-3-yl]methylene}-4,6-dihydroxy-1-benzofuran-3(2H)-one] | 4.18 µM | 0.39 µM |
